Key:
Nurr1 LBD = Nurr1 LBD (Mus musculus, UniProt Q06219); assay: Filter binding assay with [3H]-CQ (saturation and competition); details: 500 nM [3H]-CQ
Source text: The basal level of transcriptional activity was normalized to 1. The bars represent means±SEM from three independent experiments. (FIG. 13C) Effect of Nurr1 specific siRNA on Nurr1 LBD's transactivation activity. […] (FIG. 13D) Human neuroblastoma SK-N-BE(2)C cells were transfected with the N-terminal flag-tagged SRC1 or SRC3 and the C-terminal myc-tagged full-length Nurr1. […] Cell lysates were immunoprecipitated (IP) using anti-flag antibodies and analyzed by immunoblotting (IB) using anti-myc antibodies. […] The fold induction was derived by comparing each luciferase activity to basal level obtained by non-SRC transfection. […] The concentrations (04) are shown next to the arrows. […] Specific binding was calculated as the difference of total and non-specific binding. The insert indicates Scatchard analysis of the specific binding. […] The data represent the average of triplicate from three independent experiments. All graphs, Kd, Ki, and Bmax values were generated using the non-linear regression program Prism version 5.02.
GF/C filters were wet with in binding buffer and placed on a 48-place filter manifold. […] Filters were washed with 4×100 ml binding buffer, dried, and mixed with 5 ml Scintiverse BD (Fisher) and radioactivity was determined in a Beckman LS6000SC liquid scintillation counter. […] The mixture was applied to GF/C filter and filter was washed and counted as described above.

[1] = test system: LBDs of Nur77, GR, LXR, RXR, PPARα, PPARγ; assay: Target selectivity: GAL4-LBD reporter assays of other nuclear receptors; format: cell-based; details: FIG. 19; 30 μM AQ
Protocol: The positive reactivity of these NR constructs was confirmed by the known activators (2 nM dexamethasone, 20 nM retinoic acid, 2 μM GW3965, 50 nM GW7647, and 5 nM GW1929 for GR, RXR, LXR, PPARα, and PPARγ, respectively). The basal level of transcriptional activity was normalized to 1. Bars represent means±SEM from three independent experiments.
(§1) Human neuroblastoma SK-N-BE(2)C cells were maintained in Dulbecco's modified Eagle's medium (DMEM) supplemented with 10% fetal bovine serum. All culture media contained 100 units/ml penicillin and 100 μg/ml streptomycin. For transfection, cells were plated at 1.5×10^5 cells/well in the DMEM media without antibiotic into 24-well plates 1 day prior to transfection. Transfections were carried out by the Lipofectamine plus (Invitrogen) according to the manufacture's protocol. Total DNA amount was 0.5 μg per well with 0.1 μg of pRSV-β-gal as an internal control. 6 hours after transfection, compounds in the DMEM media with 1% charcoal-stripped fetal calf serum was added and incubated overnight. […] Then equal volume of firefly luciferase substrate was added and the luciferase activity was measured using a Luminometer plate reader and normalized for beta-galactosidase activity.

6-OHDA-lesioned rats = assay: 6-OHDA-lesioned rat model of PD (amphetamine rotation, TH+ and Iba-1 counts); format: in vivo
Protocol: Cells were fixed in 4% paraformaldehyde (PFA) for 20 min, washed and then incubated with blocking buffer [PBS, 10% goat serum (Invitrogen), 0.3% Triton X-100 (Sigma)] for 1 hour. Cells were then incubated overnight at 4° C. with primary antibodies with the primary antibody in PBS containing 1% normal goat serum and 0.1% Triton X-100. A rabbit polyclonal anti-TH antibody (1:500; Pel-Freez, Rogers, Ark.) was used as a primary antibody. Following washes with PBS, appropriate fluorescence-tagged secondary antibodies (Jackson Immunoresearch Laboratories, West Grove, Pa.) were used for visualization. Stained samples were mounted in […] with DAPI mounting solution (Vector Laboratories INC., Burlingame, Calif.) and photographed using epifluorescence microscope (Leica). […] The tissues were washed three times in PBS and incubated for 2 h with the secondary fluorescence-conjugated goat anti-mouse and rabbit antibody (DAKO, Denmark, Cy3, FITC, both dilutions at 1:1,000) and tissues were washed and mounted in Vectorshield. […] Tissues were visualized using fluorescence microscopy. […] The protection percentage of total TH^+ cells in the lesioned hemisphere of each rat brain was calculated by dividing total TH^+ cells in the intact hemisphere of each rat brain and multiplying […]. […]

Nurr1 = biological target: T1, Nurr1 (Mus musculus, UniProt Q06219); assay: High-throughput cell-based screen of Nurr1-dependent TH promoter activation; details: library of 960 FDA-approved drugs
T1 construct: Full-length mouse Nurr1cDNA was amplified by RT-PCR from pSV40Nurr1; expressed in transfected cells; host or cells: SK-N-BE(2)C human neuroblastoma cells
T1 sequence (Q06219 whole entry): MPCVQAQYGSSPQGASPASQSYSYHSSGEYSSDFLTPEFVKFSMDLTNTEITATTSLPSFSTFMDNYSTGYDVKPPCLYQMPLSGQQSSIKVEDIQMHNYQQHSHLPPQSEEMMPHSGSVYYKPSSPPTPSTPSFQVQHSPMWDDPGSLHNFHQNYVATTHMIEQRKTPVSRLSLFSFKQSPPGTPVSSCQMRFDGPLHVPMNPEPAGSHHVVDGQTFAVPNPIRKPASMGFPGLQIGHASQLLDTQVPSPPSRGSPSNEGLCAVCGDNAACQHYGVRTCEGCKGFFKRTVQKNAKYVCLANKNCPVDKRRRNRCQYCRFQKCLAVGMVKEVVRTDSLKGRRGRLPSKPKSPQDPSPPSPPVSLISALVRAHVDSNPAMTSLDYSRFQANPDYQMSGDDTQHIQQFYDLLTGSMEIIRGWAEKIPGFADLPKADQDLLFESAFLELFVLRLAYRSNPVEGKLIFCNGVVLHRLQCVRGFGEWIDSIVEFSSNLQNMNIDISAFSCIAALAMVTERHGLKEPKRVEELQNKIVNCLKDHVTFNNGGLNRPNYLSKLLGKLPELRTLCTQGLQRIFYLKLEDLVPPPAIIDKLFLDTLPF
Source text: The pTH2600LUC reporter construct contains the 2.6 kb upstream sequences of the rat tyrosine hydroxylase gene in front of a firefly luciferase gene in pGL3-basic vector. A Nurr1-expression plasmid, pSV40Nurr1, was kindly provided by Dr Orla M. Conneely at Baylor College of Medicine (Houston, Tex., USA). Full-length mouse Nurr1cDNA was amplified by RT-PCR from pSV40Nurr1 using forward 5′-[sequence]-3′ (SEQ ID NO: 1) and reverse 5′-[sequence]-3′ (SEQ ID NO: 2) oligonucleotides.
as §1

Nurr1 LBD, sequence (Q06219 328-598): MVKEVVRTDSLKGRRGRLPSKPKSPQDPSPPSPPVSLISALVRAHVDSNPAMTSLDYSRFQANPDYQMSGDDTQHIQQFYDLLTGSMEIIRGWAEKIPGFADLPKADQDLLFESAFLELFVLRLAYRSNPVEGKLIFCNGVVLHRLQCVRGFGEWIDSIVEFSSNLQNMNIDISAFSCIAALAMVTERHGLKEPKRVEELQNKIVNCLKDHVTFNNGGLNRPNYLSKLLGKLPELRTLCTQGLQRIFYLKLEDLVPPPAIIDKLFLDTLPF

Structure (SMILES): CCN(CC)Cc1cc(Nc2ccnc3cc(Cl)ccc23)ccc1O [AQ, amodiaquine]
- Ki (Nurr1 LBD): 246 nM
- transcriptional activity of other nuclear receptors [1]: unable to induce
- 6-OHDA-induced (amphetamine) rotation behavior (6-OHDA-lesioned rats; 4 and 6 weeks post lesion, AQ 20 mg/kg i.p. twice per day, 2 weeks): significantly ameliorated
- numbers of Iba-1+ microglia in ipsilateral SN and STR (6-OHDA-lesioned rats; after AQ treatment): decreased to the levels of the contralateral sides
- screen outcome (Nurr1): hit compounds
